In one assay the target is T1, Leucine aminopeptidase (Plasmodium falciparum 3D7, UniProt Q8IL11).
T1 sequence (Q8IL11 whole entry): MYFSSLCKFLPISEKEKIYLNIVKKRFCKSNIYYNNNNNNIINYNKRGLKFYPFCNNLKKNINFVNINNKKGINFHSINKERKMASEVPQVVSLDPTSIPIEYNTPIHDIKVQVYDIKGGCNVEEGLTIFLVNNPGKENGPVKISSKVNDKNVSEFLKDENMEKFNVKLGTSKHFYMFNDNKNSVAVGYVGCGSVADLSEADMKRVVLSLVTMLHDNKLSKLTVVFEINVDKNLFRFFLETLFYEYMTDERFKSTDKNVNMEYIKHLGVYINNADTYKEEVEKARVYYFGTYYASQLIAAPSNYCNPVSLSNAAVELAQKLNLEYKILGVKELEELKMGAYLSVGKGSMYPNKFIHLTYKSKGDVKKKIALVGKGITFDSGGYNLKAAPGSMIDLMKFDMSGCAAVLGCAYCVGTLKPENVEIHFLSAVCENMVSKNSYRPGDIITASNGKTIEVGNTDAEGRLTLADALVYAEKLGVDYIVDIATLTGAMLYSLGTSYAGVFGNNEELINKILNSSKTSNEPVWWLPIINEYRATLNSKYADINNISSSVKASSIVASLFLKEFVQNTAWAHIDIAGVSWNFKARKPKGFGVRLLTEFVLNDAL
As to the kind of experiment: P. falciparum M17LAP inhibitors, primary screen, biochemical, fluorogenic H-Leu-NHMec substrate, 1536-well (AID 1619). It counts as functional.

The target of the next assay is T2, Aspartyl aminopeptidase (Plasmodium falciparum 3D7, UniProt Q8I2J3).
T2 sequence (Q8I2J3 whole entry): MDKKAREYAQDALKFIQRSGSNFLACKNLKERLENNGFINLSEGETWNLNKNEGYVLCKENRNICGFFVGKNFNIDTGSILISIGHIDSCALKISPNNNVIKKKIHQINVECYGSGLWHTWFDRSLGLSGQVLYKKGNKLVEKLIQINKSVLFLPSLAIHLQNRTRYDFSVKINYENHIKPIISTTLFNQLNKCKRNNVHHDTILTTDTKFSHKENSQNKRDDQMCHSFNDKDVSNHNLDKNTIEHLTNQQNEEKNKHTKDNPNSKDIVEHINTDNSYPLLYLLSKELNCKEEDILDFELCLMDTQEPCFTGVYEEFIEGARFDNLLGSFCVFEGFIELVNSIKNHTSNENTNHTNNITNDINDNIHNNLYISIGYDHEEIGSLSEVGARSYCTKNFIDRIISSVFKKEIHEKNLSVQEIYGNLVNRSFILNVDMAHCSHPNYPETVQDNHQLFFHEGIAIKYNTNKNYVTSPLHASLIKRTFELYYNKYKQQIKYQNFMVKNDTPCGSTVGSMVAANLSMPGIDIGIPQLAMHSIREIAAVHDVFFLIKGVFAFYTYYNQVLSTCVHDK
Briefly: Counterscreen for inhibitors of M1 and M17 aminopeptidases: QFRET-based biochemical high throughput dose response assay for inhibitors of the Plasmodium falciparum M18 Aspartyl Aminopeptidase (PFM18AAP). [Related PubChem assays: 1619 (Screening assay (M17LAP inhibitors).), 1445 (Screening assay (M1AAP inhibitors).)]. Background: The purpose of a counterscreen is to sort out artefacts and off-target activity.

In a further assay the target is Procathepsin L (Homo sapiens, UniProt P07711). Briefly: CTSL1 protease inhibition – biochemical, QFRET, 1536-well, counter-screen for M1/M17 aminopeptidase inhibitor project, dose response (AID 2214).
Sequence of Procathepsin L (P07711 whole entry): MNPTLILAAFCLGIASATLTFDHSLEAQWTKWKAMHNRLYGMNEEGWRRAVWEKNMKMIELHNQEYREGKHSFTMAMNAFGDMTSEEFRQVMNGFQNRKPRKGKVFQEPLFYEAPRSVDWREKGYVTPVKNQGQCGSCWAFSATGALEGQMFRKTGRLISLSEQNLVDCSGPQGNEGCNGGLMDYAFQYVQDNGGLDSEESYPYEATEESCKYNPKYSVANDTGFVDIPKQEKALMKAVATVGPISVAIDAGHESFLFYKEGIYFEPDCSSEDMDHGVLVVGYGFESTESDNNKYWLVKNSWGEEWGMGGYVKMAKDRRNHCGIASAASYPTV
The next assay addresses Cytochrome P450 2C19 (Homo sapiens, UniProt P33261). As to the kind of experiment: Cytochrome panel assay with activity outcomes. Panel member name: p450-cyp2c19 Compounds with AC50 equal or less than 10 uM are considered active. The format is functional. The note with it: read-out: AC50.
Another assay concerns the target Cytochrome P450 3A4 (Homo sapiens, UniProt P08684).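 Further: CYP3A4 tested as one member of a cytochrome P450 panel screen.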
Assay [1] concerns the target T3, Apoptotic protease-activating factor 1 (Homo sapiens, UniProt O14727).
T3 sequence (O14727 whole entry): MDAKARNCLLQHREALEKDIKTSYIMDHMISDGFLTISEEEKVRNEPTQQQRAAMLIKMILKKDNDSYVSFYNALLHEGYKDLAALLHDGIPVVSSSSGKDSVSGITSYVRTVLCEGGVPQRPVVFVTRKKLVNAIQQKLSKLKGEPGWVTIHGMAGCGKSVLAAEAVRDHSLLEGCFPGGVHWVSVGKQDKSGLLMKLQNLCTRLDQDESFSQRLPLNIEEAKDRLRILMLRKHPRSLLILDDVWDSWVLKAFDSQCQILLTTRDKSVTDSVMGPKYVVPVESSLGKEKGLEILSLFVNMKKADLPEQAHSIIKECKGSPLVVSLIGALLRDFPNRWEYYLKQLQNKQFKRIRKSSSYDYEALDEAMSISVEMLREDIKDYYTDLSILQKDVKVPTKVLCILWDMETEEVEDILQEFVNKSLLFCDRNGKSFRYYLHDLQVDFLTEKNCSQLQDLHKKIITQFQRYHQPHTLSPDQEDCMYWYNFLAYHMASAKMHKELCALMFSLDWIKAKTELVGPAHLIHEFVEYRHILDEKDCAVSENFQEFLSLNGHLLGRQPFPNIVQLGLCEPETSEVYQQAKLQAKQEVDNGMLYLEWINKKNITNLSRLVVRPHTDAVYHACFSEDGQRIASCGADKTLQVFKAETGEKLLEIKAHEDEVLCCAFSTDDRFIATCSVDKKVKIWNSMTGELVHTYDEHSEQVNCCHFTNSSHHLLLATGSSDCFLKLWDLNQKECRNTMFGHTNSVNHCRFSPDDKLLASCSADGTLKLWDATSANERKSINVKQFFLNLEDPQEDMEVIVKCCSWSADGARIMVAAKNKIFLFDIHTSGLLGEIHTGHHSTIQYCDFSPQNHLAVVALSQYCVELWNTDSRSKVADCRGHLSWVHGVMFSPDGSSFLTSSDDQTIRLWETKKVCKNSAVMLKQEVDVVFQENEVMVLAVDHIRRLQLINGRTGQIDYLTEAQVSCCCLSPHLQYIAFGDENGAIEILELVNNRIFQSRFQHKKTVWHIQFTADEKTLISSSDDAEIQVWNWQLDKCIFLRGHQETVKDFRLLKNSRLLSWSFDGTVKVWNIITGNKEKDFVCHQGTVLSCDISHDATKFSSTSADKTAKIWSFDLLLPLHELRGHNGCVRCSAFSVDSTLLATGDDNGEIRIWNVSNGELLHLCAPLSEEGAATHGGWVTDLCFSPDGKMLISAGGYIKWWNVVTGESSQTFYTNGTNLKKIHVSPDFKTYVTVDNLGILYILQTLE
The format is functional.

In assay [2] the target is T4, Tyrosyl-DNA phosphodiesterase 2 (Homo sapiens, UniProt O95551).
T4 sequence (O95551 whole entry): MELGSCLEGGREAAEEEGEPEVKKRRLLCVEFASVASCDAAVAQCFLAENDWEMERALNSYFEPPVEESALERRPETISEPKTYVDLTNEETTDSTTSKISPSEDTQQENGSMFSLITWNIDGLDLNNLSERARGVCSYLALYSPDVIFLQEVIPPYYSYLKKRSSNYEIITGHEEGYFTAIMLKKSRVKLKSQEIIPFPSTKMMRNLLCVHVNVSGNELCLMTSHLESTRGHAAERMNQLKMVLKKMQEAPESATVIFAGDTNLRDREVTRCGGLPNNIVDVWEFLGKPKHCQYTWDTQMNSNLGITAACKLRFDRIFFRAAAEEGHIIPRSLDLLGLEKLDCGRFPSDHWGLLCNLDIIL
As to the kind of experiment: potency against TDP2 phosphodiesterase activity – biochemical, epi absorbance, IC50, dose response (AID 743297).

Assay [3] deals with Serine/threonine-protein phosphatase PP1-alpha catalytic subunit (Homo sapiens, UniProt P62136). As to the kind of experiment: inhibition of protein phosphatase 1 activity – biochemical, fluorescence, dose response (AID 2394).
Sequence of Serine/threonine-protein phosphatase PP1-alpha catalytic subunit (P62136 whole entry): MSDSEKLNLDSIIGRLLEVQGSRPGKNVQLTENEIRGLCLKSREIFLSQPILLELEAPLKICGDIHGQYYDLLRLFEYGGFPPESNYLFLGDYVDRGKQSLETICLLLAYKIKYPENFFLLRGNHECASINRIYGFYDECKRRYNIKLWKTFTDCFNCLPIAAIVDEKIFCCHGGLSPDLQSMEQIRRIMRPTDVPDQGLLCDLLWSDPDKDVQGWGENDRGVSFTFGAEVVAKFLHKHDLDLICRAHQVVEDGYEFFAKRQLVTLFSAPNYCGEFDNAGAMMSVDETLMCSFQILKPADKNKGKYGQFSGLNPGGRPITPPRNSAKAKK
In assay [4] the target is T5, Histone-lysine N-methyltransferase NSD2 (Homo sapiens, UniProt O96028).
T5 sequence (O96028 whole entry): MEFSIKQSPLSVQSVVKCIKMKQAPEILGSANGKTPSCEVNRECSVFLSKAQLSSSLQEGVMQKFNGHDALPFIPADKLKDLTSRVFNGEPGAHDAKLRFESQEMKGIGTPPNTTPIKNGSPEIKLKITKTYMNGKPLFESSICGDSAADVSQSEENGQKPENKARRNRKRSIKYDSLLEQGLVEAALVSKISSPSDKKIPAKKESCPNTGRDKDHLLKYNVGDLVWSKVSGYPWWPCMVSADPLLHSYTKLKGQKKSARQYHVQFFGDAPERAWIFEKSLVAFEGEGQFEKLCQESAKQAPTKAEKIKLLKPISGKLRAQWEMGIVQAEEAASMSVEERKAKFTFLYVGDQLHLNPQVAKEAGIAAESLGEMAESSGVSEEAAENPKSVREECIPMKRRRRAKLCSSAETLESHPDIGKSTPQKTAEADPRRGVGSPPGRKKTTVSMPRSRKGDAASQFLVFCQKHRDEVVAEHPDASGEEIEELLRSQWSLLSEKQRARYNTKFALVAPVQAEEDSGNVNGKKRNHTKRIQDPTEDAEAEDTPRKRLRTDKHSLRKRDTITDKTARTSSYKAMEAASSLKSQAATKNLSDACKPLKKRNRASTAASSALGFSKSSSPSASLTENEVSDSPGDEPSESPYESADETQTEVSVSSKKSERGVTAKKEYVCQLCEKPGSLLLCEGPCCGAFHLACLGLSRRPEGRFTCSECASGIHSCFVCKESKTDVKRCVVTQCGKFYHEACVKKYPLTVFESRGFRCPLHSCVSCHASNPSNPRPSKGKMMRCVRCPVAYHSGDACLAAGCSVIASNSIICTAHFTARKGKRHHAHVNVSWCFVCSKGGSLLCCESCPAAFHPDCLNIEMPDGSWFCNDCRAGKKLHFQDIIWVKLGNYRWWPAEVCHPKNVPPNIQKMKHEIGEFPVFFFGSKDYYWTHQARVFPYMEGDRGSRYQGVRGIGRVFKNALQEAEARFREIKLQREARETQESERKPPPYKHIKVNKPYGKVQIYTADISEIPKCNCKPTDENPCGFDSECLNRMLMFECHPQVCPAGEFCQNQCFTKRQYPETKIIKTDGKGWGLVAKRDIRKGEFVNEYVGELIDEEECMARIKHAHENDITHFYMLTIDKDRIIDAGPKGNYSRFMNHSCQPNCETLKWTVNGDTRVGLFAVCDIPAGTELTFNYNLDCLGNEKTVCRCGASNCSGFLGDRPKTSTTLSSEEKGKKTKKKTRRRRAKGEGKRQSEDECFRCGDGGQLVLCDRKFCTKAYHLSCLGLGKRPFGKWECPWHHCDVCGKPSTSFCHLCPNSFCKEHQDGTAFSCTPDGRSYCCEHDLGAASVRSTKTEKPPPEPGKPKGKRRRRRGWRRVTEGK
It counts as biochemical.

In assay [5] the target is Ras and Rab interactor 1/Tyrosine-protein kinase ABL1 (Homo sapiens, UniProt P00519+Q13671). The format is functional.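 Further: biochemical TR-FRET dose-response test measuring inhibition of binding between Rin1 and Abl proteins.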
Sequence of Ras and Rab interactor 1/Tyrosine-protein kinase ABL1 (P00519 whole entry): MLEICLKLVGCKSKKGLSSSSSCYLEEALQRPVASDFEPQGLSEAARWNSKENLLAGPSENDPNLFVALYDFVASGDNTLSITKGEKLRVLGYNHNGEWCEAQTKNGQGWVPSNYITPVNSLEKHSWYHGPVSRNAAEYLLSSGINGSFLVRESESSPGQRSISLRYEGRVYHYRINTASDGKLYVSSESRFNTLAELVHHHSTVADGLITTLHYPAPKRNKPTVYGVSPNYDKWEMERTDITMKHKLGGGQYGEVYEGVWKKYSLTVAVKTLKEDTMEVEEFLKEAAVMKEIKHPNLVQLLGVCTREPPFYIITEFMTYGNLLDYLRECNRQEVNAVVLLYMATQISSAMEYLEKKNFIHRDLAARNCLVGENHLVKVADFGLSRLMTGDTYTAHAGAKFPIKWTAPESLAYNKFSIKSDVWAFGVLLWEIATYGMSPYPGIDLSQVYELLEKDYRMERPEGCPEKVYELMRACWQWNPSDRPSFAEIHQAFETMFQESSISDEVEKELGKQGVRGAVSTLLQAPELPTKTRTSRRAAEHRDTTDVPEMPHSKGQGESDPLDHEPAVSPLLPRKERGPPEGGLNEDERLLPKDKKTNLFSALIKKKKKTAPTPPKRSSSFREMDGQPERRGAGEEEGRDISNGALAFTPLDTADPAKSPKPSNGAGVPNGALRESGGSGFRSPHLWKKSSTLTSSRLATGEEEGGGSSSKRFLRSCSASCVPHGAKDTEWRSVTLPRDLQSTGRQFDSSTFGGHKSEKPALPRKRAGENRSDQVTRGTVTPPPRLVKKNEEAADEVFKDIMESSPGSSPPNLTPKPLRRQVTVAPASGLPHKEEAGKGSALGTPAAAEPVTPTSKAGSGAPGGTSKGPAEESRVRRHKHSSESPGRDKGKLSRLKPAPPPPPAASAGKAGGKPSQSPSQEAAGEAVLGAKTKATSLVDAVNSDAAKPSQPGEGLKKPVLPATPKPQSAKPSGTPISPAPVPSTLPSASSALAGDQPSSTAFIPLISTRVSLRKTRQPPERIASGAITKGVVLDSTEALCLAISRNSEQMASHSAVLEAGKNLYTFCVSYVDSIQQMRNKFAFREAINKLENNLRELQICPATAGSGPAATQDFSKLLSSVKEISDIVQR
Sequence of Ras and Rab interactor 1/Tyrosine-protein kinase ABL1 (Q13671 whole entry): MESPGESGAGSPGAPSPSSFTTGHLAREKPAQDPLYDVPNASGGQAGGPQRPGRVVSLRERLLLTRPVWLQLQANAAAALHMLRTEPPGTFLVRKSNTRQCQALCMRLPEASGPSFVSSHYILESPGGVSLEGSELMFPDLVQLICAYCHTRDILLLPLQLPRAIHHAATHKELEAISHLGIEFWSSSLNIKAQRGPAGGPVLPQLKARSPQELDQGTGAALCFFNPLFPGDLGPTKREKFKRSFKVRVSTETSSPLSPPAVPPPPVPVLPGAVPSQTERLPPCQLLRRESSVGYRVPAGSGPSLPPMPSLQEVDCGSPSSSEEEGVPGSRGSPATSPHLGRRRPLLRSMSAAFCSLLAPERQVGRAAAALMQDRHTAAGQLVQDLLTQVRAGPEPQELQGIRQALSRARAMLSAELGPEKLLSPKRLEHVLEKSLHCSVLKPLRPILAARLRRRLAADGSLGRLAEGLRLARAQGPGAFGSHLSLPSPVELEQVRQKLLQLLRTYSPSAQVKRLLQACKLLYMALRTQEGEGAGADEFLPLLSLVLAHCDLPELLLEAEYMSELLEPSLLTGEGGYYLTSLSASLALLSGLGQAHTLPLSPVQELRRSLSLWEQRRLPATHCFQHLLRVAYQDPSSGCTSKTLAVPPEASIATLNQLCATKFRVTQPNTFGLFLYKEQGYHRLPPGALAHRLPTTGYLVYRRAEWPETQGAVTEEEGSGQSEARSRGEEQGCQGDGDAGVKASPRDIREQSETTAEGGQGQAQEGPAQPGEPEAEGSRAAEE
The target of assay [6] is T6, Serine/threonine-protein phosphatase (Homo sapiens, UniProt Q9BPW0).
T6 sequence (Q9BPW0 whole entry): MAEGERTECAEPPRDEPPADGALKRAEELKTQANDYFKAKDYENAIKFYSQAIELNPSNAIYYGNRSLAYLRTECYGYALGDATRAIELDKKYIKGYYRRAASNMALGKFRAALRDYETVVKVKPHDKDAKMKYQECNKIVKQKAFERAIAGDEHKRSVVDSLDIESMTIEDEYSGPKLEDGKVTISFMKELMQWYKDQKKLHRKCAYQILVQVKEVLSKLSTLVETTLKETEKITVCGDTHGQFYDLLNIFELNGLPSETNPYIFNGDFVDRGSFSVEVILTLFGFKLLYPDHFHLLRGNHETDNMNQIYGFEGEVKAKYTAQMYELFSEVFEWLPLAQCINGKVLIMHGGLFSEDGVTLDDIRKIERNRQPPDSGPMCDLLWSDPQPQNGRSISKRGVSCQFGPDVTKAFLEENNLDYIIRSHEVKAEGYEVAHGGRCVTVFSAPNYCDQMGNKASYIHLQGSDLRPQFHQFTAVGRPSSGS
As to the kind of experiment: inhibition of protein phosphatase 5 activity – biochemical, fluorescence, dose response (AID 2395).

By IC50 is commonly meant the midpoint of a concentration-inhibition curve. The term AC50 denotes the concentration at which the activity in the assay is half-maximal.

The source made the active and inactive calls. Where only a bound is given, the exact number is not on record here.

Sequence of Cytochrome P450 3A4 (P08684 whole entry): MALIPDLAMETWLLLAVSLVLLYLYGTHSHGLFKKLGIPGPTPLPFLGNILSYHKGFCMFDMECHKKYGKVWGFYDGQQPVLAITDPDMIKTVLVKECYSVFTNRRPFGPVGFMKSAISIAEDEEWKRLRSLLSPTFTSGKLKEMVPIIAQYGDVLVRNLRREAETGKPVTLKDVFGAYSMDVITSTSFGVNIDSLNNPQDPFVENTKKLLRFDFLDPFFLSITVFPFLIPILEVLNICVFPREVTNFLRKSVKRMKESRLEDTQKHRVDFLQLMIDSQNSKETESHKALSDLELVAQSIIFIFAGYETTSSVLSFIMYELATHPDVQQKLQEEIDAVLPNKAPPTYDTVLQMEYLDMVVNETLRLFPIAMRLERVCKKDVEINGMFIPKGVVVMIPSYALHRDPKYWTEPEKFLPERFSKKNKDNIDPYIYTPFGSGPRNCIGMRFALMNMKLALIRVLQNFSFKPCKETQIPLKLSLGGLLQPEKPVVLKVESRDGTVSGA
Sequence of Cytochrome P450 2C19 (P33261 whole entry): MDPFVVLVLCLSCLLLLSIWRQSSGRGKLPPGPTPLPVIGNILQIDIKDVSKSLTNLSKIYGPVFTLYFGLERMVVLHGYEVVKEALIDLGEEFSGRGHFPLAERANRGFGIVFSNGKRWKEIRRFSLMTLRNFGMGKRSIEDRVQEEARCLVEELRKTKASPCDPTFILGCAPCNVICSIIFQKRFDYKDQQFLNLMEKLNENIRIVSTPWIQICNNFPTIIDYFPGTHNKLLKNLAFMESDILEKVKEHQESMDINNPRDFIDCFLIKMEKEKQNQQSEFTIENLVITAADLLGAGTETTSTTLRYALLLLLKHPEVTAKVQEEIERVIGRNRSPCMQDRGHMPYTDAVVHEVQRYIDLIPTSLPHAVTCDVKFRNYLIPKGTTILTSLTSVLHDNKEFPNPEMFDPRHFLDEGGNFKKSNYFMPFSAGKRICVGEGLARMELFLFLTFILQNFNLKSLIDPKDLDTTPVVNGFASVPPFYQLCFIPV

As for `O=C(O)Cc1ccc(NC(=O)Nc2cccc(Cl)c2)cc1`, the IC50 at Leucine aminopeptidase is 1.7 µM (active); at Aspartyl aminopeptidase it was > 73.5 µM (not active); at Procathepsin L it was > 59.6 µM (not active).

Regarding `Cc1ccc(-c2c(C)sc(NC(=O)C3C4CCC(O4)C3C(=O)O)c2C(=O)OC(C)C)cc1` (centres undefined), the IC50 on Leucine aminopeptidase was 7.67 µM (active); against Aspartyl aminopeptidase it was > 73.5 µM (not active); against Procathepsin L it was > 59.6 µM (not active). Also, the AC50 at Cytochrome P450 2C19 was 28.2 µM (inconclusive); on Cytochrome P450 3A4, 14.1 µM (inconclusive).

For the molecule `CC(=O)C(C(C)=O)C1(O)C(=O)c2ccccc2C1=O`, the IC50 in assay [1] is 9.72 µM (active); in assay [2], 9.1 µM (active); in assay [3], > 67 µM (not active); in assay [5] it was > 73.5 µM (inactive); in assay [6] it was > 22.3 µM (not active). Moreover, in [4], the AC50 was 5.35 µM (active).

Source of the values: ChEMBL document CHEMBL1201862, “PubChem BioAssay data set” (2004).
